What was measured:
[1] = system: barnyardgrass (Echinochloa crus-galli); experiment: Test A preemergence, visual injury rating 0-100 (0 no effect, 100 complete control); assay type: in vivo
[2] = system: foxtail, giant (giant foxtail, Setaria faberii); experiment: Test A preemergence, visual injury rating 0-100; assay type: in vivo
kochia (Kochia scoparia) [3] = experiment: Test A preemergence, visual injury rating 0-100; assay type: in vivo
[4] = system: pigweed (Amaranthus retroflexus); experiment: Test A preemergence, visual injury rating 0-100; assay type: in vivo
[5] = system: ragweed (common ragweed, Ambrosia elatior); experiment: Test A preemergence, visual injury rating 0-100; assay type: in vivo
[6] = system: ryegrass, Italian (Italian ryegrass, Lolium multiflorum); experiment: Test A preemergence, visual injury rating 0-100; assay type: in vivo; conditions: 500 g ai/ha
[7] = system: barnyardgrass (Echinochloa crus-galli); experiment: Test A postemergence, visual injury rating 0-100; assay type: in vivo; conditions: 0 to 100 scale
[8] = system: blackgrass (Alopecurus myosuroides); experiment: Test A postemergence, visual injury rating 0-100; assay type: in vivo; conditions: 0 to 100 scale
corn (Zea mays) = experiment: Test A postemergence, visual injury rating 0-100; assay type: in vivo; conditions: 0 to 100 scale
[9] = system: foxtail, giant (giant foxtail, Setaria faberii); experiment: Test A postemergence, visual injury rating 0-100; assay type: in vivo; conditions: 0 to 100 scale
[10] = system: galium (catchweed bedstraw, Galium aparine); experiment: Test A postemergence, visual injury rating 0-100; assay type: in vivo; conditions: 0 to 100 scale
kochia (Kochia scoparia) [11] = experiment: Test A postemergence, visual injury rating 0-100; assay type: in vivo; conditions: 0 to 100 scale
[12] = system: pigweed (Amaranthus retroflexus); experiment: Test A postemergence, visual injury rating 0-100; assay type: in vivo; conditions: 0 to 100 scale
[13] = system: ragweed (common ragweed, Ambrosia elatior); experiment: Test A postemergence, visual injury rating 0-100; assay type: in vivo; conditions: 0 to 100 scale
[14] = system: ryegrass, Italian (Italian ryegrass, Lolium multiflorum); experiment: Test A postemergence, visual injury rating 0-100; assay type: in vivo; conditions: 0 to 100 scale
[15] = system: wheat (Triticum aestivum); experiment: Test A postemergence, visual injury rating 0-100; assay type: in vivo; conditions: 0 to 100 scale
[16] = system: ducksalad (Heteranthera limosa); experiment: Test B flooded paddy test, visual rating 0-100; conditions: Flood, 250 g ai/ha, applied to paddy water, rated after 13 to 15 days
[17] = system: barnyardgrass (Echinochloa crus-galli); experiment: Test B flooded paddy test, visual rating 0-100; conditions: Flood, 250 g ai/ha, applied to paddy water, rated after 13 to 15 days
rice (Oryza sativa) = experiment: Test B flooded paddy test, visual rating 0-100 (0 no effect, 100 complete control); conditions: Flood, 250 g ai/ha, applied to paddy water, rated after 13 to 15 days

CC1=[N+]([O-])C(C(=O)Nc2cccc(F)c2F)C(c2cc(C)c(F)c(C)c2)C1 (racemic) [Compound 111]
20: Pigweed plant response rating (0 to 100 scale) ([4]; 125 g ai/ha) | Pigweed plant response rating ([12]; 500 g ai/ha)
80: Blackgrass plant response rating ([8]; 125 g ai/ha) | Blackgrass plant response rating ([8]; 500 g ai/ha) | Ryegrass, Italian plant response rating ([14]; 500 g ai/ha)
0: Kochia plant response rating (0 to 100 scale) (kochia (Kochia scoparia) [3]; 125 g ai/ha) | Ragweed plant response rating (0 to 100 scale) ([5]; 125 g ai/ha) | Kochia plant response rating (kochia (Kochia scoparia) [11]; 125 g ai/ha) | Kochia plant response rating (kochia (Kochia scoparia) [11]; 500 g ai/ha) | Pigweed plant response rating ([12]; 125 g ai/ha) | Ducksalad plant response rating (0 to 100 scale) [16] | Barnyardgrass plant response rating (0 to 100 scale) [17] | Rice plant response rating (0 to 100 scale) (rice (Oryza sativa))
70: Barnyardgrass plant response rating ([7]; 125 g ai/ha) | Corn plant response rating (corn (Zea mays); 125 g ai/ha) | Galium plant response rating ([10]; 500 g ai/ha) | Ragweed plant response rating ([13]; 500 g ai/ha) | Wheat plant response rating ([15]; 500 g ai/ha)
60: Pigweed plant response rating (0 to 100 scale) ([4]; 500 g ai/ha)
50: Galium plant response rating ([10]; 125 g ai/ha) | Wheat plant response rating ([15]; 125 g ai/ha)
30: Ragweed plant response rating ([13]; 125 g ai/ha)
40: Foxtail, Giant plant response rating ([9]; 125 g ai/ha) | Ryegrass, Italian plant response rating ([14]; 125 g ai/ha)
90: Barnyardgrass plant response rating (0 to 100 scale) ([1]; 125 g ai/ha) | Barnyardgrass plant response rating (0 to 100 scale) ([1]; 500 g ai/ha) | Foxtail, Giant plant response rating (0 to 100 scale) ([2]; 125 g ai/ha) | Foxtail, Giant plant response rating (0 to 100 scale) ([2]; 500 g ai/ha) | Kochia plant response rating (0 to 100 scale) (kochia (Kochia scoparia) [3]; 500 g ai/ha) | Ragweed plant response rating (0 to 100 scale) ([5]; 500 g ai/ha) | Ryegrass, Italian plant response rating (0 to 100 scale) [6] | Barnyardgrass plant response rating ([7]; 500 g ai/ha) | Corn plant response rating (corn (Zea mays); 500 g ai/ha) | Foxtail, Giant plant response rating ([9]; 500 g ai/ha)

CC1=[N+]([O-])C(C(=O)Nc2cccc(F)c2F)C(c2cc(C)cc(C)c2)C1 (racemic) [Compound 112]
70: Pigweed plant response rating (0 to 100 scale) ([4]; 500 g ai/ha) | Barnyardgrass plant response rating ([7]; 125 g ai/ha) | Galium plant response rating ([10]; 500 g ai/ha) | Wheat plant response rating ([15]; 500 g ai/ha) | Barnyardgrass plant response rating (0 to 100 scale) [17]
45: Ducksalad plant response rating (0 to 100 scale) [16]
40: Ragweed plant response rating (0 to 100 scale) ([5]; 125 g ai/ha) | Ryegrass, Italian plant response rating ([14]; 125 g ai/ha) | Wheat plant response rating ([15]; 125 g ai/ha)
50: Kochia plant response rating (0 to 100 scale) (kochia (Kochia scoparia) [3]; 125 g ai/ha) | Galium plant response rating ([10]; 125 g ai/ha)
90: Barnyardgrass plant response rating (0 to 100 scale) ([1]; 125 g ai/ha) | Foxtail, Giant plant response rating (0 to 100 scale) ([2]; 125 g ai/ha) | Kochia plant response rating (0 to 100 scale) (kochia (Kochia scoparia) [3]; 500 g ai/ha) | Barnyardgrass plant response rating ([7]; 500 g ai/ha) | Corn plant response rating (corn (Zea mays); 500 g ai/ha) | Foxtail, Giant plant response rating ([9]; 125 g ai/ha) | Foxtail, Giant plant response rating ([9]; 500 g ai/ha) | Ryegrass, Italian plant response rating ([14]; 500 g ai/ha)
80: Ragweed plant response rating (0 to 100 scale) ([5]; 500 g ai/ha) | Blackgrass plant response rating ([8]; 125 g ai/ha) | Blackgrass plant response rating ([8]; 500 g ai/ha) | Corn plant response rating (corn (Zea mays); 125 g ai/ha)
60: Ragweed plant response rating ([13]; 500 g ai/ha)
0: Pigweed plant response rating (0 to 100 scale) ([4]; 125 g ai/ha) | Kochia plant response rating (kochia (Kochia scoparia) [11]; 125 g ai/ha) | Pigweed plant response rating ([12]; 125 g ai/ha) | Pigweed plant response rating ([12]; 500 g ai/ha) | Ragweed plant response rating ([13]; 125 g ai/ha) | Rice plant response rating (0 to 100 scale) (rice (Oryza sativa))
20: Kochia plant response rating (kochia (Kochia scoparia) [11]; 500 g ai/ha)
100: Barnyardgrass plant response rating (0 to 100 scale) ([1]; 500 g ai/ha) | Foxtail, Giant plant response rating (0 to 100 scale) ([2]; 500 g ai/ha) | Ryegrass, Italian plant response rating (0 to 100 scale) [6]

CC1=[N+]([O-])C(C(=O)Nc2cccc(F)c2F)C(c2ccc(OC(F)(F)F)c(F)c2)C1 (racemic) [Compound 113]
20: Corn plant response rating (corn (Zea mays); 125 g ai/ha) | Pigweed plant response rating ([12]; 500 g ai/ha)
70: Ragweed plant response rating (0 to 100 scale) ([5]; 500 g ai/ha) | Galium plant response rating ([10]; 500 g ai/ha)
90: Barnyardgrass plant response rating (0 to 100 scale) ([1]; 125 g ai/ha) | Barnyardgrass plant response rating (0 to 100 scale) ([1]; 500 g ai/ha) | Foxtail, Giant plant response rating (0 to 100 scale) ([2]; 125 g ai/ha) | Foxtail, Giant plant response rating (0 to 100 scale) ([2]; 500 g ai/ha) | Kochia plant response rating (0 to 100 scale) (kochia (Kochia scoparia) [3]; 500 g ai/ha) | Foxtail, Giant plant response rating ([9]; 500 g ai/ha)
10: Kochia plant response rating (0 to 100 scale) (kochia (Kochia scoparia) [3]; 125 g ai/ha)
0: Ragweed plant response rating (0 to 100 scale) ([5]; 125 g ai/ha) | Kochia plant response rating (kochia (Kochia scoparia) [11]; 125 g ai/ha) | Pigweed plant response rating ([12]; 125 g ai/ha) | Ryegrass, Italian plant response rating ([14]; 125 g ai/ha) | Wheat plant response rating ([15]; 125 g ai/ha) | Ducksalad plant response rating (0 to 100 scale) [16] | Barnyardgrass plant response rating (0 to 100 scale) [17] | Rice plant response rating (0 to 100 scale) (rice (Oryza sativa))
50: Galium plant response rating ([10]; 125 g ai/ha) | Ragweed plant response rating ([13]; 125 g ai/ha) | Ragweed plant response rating ([13]; 500 g ai/ha) | Ryegrass, Italian plant response rating ([14]; 500 g ai/ha) | Wheat plant response rating ([15]; 500 g ai/ha)
40: Blackgrass plant response rating ([8]; 125 g ai/ha) | Kochia plant response rating (kochia (Kochia scoparia) [11]; 500 g ai/ha)
60: Pigweed plant response rating (0 to 100 scale) ([4]; 500 g ai/ha)
30: Pigweed plant response rating (0 to 100 scale) ([4]; 125 g ai/ha) | Barnyardgrass plant response rating ([7]; 125 g ai/ha)
80: Ryegrass, Italian plant response rating (0 to 100 scale) [6] | Barnyardgrass plant response rating ([7]; 500 g ai/ha) | Blackgrass plant response rating ([8]; 500 g ai/ha) | Corn plant response rating (corn (Zea mays); 500 g ai/ha) | Foxtail, Giant plant response rating ([9]; 125 g ai/ha)
